The nature of one series: cells. Conditions: Homo sapiens, HeLa.
In the next series the target is T1, Cytochrome P450 2C8 (Homo sapiens, UniProt P10632).
T1 sequence (P10632 whole entry): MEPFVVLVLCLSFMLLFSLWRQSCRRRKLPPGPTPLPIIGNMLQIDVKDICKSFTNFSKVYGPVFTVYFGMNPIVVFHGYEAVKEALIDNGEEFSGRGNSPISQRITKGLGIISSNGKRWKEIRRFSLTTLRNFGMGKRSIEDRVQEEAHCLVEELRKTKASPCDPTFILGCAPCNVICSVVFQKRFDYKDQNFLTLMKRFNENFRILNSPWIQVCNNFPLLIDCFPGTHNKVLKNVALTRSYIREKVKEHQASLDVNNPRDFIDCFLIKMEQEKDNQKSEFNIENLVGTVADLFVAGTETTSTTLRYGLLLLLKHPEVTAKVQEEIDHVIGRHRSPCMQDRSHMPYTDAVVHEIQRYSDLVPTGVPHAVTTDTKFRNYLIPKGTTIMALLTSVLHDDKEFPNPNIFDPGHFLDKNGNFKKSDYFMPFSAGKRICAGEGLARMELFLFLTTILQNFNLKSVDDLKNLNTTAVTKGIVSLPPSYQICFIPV
The series can be described thus: Inhibition of CYP2C8 (unknown origin). The class given is ADME.

A short description of series [1]: Oral bioavailability in Beagle dog at 1 mg/kg. The class given is ADME, organism-based, Canis lupus familiaris. Conditions: in vivo.
Series [2] in a line: Unbound volume of distribution in Wistar-Han rat at 0.5 mg/kg, iv or 1 mg/kg, po. The class given is ADME, organism-based. The settings on record: in vivo.
Series [3] in a line: Half life in Wistar-Han rat at 0.5 mg/kg, iv or 1 mg/kg, po. Type of series: ADME, organism-based. The settings on record: in vivo.
The nature of series [4]: Unbound volume of distribution in Beagle dog at 0.5 mg/kg, iv or 1 mg/kg, po. Type of series: ADME, organism-based, Canis lupus familiaris. Conditions: in vivo.
Series [5] in a line: Clearance in Beagle dog at 0.5 mg/kg, iv or 1 mg/kg, po. The settings on record: in vivo. Type of series: ADME, organism-based, Canis lupus familiaris.
The nature of series [6]: Clearance in Wistar-Han rat at 0.5 mg/kg, iv or 1 mg/kg, po. Type of series: ADME, organism-based. Conditions: in vivo.
Series [7] can be described thus: Solubility of the compound at pH 7. Conditions: buffer. Type of series: physicochemical.
Series [8] in a line: Oral bioavailability in Wistar-Han rat at 1 mg/kg. The settings on record: in vivo. The class given is ADME, organism-based.
The nature of series [9]: Volume of distribution in Beagle dog at 0.5 mg/kg, iv or 1 mg/kg, po. Conditions: in vivo. Type of series: ADME, organism-based, Canis lupus familiaris.
The nature of series [10]: Apparent permeability in pig LLC-PK1 cells. Type of series: ADME, cell-based, Sus scrofa.
In another series the target is Cytochrome P450 2D6 (Homo sapiens, UniProt P10635). As to the kind of experiment: Inhibition of CYP2D6 (unknown origin). Type of series: ADME.
A short description of series [11]: Intrinsic clearance in Wistar-Han rat at 0.5 mg/kg, iv or 1 mg/kg, po. Type of series: ADME, organism-based. Conditions: in vivo.
A short description of series [12]: AUC in rat at 200 mg/kg. Type of series: ADME, organism-based. Further details: dose 200 mg/kg. Conditions: in vivo.
The next series concerns the target Cytochrome P450 3A4 (Homo sapiens, UniProt P08684). The series can be described thus: Inhibition of CYP3A4 (unknown origin). The class given is ADME.
Series [13] addresses Sodium channel protein type 5 subunit alpha (Homo sapiens, UniProt Q14524). As to the kind of experiment: Inhibition of Nav1.5 (unknown origin).
Series [14] has as its target Voltage-gated inwardly rectifying potassium channel KCNH2 (Homo sapiens, UniProt Q12809). The series can be described thus: Inhibition of human ERG.
Series [15] is described as follows: Half life in Beagle dog at 0.5 mg/kg, iv or 1 mg/kg, po. Conditions: in vivo. The class given is ADME, organism-based, Canis lupus familiaris.
Another series addresses Cytochrome P450 2C9 (Homo sapiens, UniProt P11712). As to the kind of experiment: Inhibition of CYP2C9 (unknown origin). Type of series: ADME.
Series [16] is described as follows: Volume of distribution in Wistar-Han rat at 0.5 mg/kg, iv or 1 mg/kg, po. Type of series: ADME, organism-based. Conditions: in vivo.
Series [17] can be described thus: Intrinsic clearance in Beagle dog at 0.5 mg/kg, iv or 1 mg/kg, po. Type of series: ADME, organism-based, Canis lupus familiaris. Conditions: in vivo.
For series [18], the target named is Voltage-dependent L-type calcium channel subunit alpha-1C (Homo sapiens, UniProt Q13936). As to the kind of experiment: Inhibition of Cav1.2 (unknown origin).

One compound from ChEMBL document CHEMBL4665917, “Optimization of Versatile Oxindoles as Selective PI3Kδ Inhibitors” (ACS Med Chem Lett, 2020) can be followed below.

Values after ≈ are worked out from the molar mass of the structure shown.

Chain of Cytochrome P450 2D6 (P10635 whole entry): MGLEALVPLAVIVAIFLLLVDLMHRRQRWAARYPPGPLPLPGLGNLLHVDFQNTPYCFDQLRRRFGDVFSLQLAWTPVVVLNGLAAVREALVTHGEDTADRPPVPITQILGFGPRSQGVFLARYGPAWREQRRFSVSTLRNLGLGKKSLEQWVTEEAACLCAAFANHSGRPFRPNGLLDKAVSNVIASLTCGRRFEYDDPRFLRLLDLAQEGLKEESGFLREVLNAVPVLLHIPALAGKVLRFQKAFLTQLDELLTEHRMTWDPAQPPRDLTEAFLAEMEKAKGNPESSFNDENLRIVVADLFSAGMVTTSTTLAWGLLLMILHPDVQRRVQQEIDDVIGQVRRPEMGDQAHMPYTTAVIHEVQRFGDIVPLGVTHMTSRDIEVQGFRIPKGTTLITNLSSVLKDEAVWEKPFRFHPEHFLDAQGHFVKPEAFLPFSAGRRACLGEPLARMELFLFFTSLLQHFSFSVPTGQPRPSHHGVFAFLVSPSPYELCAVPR
Chain of Sodium channel protein type 5 subunit alpha (Q14524 whole entry): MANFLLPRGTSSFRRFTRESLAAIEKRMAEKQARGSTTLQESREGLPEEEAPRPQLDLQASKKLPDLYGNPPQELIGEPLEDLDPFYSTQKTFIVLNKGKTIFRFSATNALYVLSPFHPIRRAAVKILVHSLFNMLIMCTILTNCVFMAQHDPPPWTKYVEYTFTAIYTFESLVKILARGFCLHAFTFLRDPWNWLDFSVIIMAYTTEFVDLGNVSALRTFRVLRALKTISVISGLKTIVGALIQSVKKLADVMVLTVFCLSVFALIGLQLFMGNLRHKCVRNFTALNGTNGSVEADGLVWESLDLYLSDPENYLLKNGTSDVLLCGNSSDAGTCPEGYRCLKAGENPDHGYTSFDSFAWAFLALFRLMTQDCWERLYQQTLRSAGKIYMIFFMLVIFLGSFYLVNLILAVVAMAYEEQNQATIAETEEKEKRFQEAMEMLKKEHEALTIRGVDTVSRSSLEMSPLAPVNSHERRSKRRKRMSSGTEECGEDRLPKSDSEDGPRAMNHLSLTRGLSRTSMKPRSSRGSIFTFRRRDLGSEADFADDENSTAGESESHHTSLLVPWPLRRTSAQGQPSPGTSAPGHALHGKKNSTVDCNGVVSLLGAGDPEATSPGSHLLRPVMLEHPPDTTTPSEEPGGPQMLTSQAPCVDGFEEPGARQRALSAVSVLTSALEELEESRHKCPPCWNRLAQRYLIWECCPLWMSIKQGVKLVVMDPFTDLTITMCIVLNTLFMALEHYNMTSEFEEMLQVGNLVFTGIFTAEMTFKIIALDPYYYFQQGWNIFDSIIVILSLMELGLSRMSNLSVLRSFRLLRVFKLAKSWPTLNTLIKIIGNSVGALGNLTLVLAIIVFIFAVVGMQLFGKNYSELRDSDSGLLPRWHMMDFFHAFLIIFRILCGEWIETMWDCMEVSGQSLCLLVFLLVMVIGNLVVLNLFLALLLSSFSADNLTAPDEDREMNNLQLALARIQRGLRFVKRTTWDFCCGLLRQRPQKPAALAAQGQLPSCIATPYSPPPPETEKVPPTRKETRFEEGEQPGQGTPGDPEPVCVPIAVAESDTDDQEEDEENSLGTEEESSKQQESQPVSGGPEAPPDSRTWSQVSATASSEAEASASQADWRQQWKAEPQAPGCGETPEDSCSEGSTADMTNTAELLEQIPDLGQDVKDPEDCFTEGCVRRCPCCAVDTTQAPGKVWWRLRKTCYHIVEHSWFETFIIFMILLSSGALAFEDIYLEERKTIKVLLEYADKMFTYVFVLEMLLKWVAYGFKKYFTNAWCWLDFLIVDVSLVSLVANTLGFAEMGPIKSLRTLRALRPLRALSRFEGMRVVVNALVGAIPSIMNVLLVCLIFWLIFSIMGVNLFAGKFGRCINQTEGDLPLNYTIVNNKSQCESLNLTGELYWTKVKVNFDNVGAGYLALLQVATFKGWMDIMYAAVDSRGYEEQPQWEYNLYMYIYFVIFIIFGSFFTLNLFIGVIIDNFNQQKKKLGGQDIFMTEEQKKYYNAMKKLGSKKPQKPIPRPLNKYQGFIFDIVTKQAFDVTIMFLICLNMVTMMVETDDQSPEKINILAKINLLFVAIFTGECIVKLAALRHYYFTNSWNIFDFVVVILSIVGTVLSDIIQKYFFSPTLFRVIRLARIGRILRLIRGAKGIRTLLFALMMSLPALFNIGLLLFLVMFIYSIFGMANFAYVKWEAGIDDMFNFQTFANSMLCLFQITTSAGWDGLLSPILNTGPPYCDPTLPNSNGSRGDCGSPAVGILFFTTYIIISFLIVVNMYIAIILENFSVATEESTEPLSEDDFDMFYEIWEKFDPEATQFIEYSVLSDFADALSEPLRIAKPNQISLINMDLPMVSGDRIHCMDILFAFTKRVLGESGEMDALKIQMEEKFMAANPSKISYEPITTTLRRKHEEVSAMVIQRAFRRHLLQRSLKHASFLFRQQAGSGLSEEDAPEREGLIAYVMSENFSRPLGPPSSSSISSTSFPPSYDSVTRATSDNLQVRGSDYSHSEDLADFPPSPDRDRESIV
Chain of Cytochrome P450 2C9 (P11712 whole entry): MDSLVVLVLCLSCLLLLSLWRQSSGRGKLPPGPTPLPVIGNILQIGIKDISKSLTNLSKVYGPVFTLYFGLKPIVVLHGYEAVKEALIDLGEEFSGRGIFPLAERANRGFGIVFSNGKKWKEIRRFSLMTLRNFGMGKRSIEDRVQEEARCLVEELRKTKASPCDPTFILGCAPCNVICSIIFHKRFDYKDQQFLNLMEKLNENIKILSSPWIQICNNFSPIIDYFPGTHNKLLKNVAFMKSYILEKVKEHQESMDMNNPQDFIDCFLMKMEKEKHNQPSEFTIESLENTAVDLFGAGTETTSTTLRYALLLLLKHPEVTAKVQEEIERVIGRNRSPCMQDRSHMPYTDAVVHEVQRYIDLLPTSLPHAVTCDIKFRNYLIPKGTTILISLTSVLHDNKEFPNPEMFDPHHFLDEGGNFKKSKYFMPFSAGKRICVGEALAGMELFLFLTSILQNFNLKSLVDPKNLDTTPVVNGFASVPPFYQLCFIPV
Chain of Cytochrome P450 3A4 (P08684 whole entry): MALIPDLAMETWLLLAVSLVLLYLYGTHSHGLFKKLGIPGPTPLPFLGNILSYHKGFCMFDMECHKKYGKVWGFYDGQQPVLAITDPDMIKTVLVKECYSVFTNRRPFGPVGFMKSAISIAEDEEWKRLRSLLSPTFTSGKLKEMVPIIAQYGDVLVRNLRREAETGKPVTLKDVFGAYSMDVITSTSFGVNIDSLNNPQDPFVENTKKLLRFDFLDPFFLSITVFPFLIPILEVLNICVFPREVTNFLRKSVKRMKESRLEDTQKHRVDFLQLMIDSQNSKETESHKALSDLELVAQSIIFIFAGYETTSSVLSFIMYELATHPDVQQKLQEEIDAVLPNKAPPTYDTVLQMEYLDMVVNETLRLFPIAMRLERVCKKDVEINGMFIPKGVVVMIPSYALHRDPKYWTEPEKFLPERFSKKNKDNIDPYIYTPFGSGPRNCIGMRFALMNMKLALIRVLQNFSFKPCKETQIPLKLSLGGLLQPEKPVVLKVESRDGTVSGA
Chain of Voltage-gated inwardly rectifying potassium channel KCNH2 (Q12809 whole entry): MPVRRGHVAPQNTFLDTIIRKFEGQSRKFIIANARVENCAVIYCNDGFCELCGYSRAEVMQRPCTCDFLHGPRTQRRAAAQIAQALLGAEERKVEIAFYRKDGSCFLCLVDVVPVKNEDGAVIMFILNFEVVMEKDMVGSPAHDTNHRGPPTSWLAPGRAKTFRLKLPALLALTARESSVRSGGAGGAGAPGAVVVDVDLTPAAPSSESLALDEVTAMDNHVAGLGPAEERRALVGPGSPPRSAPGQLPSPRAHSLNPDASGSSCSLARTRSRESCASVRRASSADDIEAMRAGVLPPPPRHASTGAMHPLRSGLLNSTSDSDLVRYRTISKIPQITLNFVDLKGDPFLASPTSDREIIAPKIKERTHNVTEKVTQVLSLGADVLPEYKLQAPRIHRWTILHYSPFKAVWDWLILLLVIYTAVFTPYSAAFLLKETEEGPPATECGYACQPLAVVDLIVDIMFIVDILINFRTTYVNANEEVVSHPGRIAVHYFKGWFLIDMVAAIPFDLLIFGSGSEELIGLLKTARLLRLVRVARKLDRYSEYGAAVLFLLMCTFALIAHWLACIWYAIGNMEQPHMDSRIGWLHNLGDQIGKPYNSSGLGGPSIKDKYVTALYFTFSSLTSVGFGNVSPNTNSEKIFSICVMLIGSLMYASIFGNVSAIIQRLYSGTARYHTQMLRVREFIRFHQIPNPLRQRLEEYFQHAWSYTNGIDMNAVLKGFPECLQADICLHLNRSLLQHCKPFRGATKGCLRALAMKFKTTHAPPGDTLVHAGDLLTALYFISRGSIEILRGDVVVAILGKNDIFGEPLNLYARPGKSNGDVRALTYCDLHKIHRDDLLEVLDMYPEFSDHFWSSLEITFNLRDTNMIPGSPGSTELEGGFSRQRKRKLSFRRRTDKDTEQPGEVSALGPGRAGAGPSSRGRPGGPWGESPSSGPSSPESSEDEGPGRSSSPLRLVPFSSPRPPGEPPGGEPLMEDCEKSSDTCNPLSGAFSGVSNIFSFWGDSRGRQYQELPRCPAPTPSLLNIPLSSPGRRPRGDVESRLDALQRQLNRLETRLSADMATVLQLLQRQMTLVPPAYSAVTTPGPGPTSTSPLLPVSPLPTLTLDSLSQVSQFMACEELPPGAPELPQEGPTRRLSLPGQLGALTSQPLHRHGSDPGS

Take `Cc1ncc(-c2nc3c(-c4ccc5c(c4)[C@@]4(CCCN4C(=O)C4CC4)C(=O)N5C)ncnc3n2C)cn1`: the IC50 (usually the concentration at which inhibition is half-maximal) in the series “cells” was 9.1 µM; against Cytochrome P450 2C8 it was greater than 50 µM; at Cytochrome P450 2D6, greater than 50 µM; against Cytochrome P450 3A4 it was greater than 50 µM; in [13], greater than 30 µM; in series [14] it was greater than 30 µM. The IC50 against Cytochrome P450 2C9 was greater than 50 µM; in [18], greater than 30 µM. In addition, the bioavailability (commonly the share of a dose that reaches the circulation, judged against a reference dose that is usually intravenous) in series [1] was 82%; in series [8], 100%. For the same compound, the figures for the Vdu in series [2] and in series [4] were 6.1 L/kg and 1.5 L/kg, respectively. Besides, the half-life (as a rule, the time in which the quantity being followed falls by half) in series [3] is 1.4 h; in series [15], 2 h. In addition, the clearance in [5] was 0.366 L/h/kg; in series [6] it was 1.32 L/h/kg. In series [7], the concentration in solution (solubility) was 140 µM (≈ 69.2 µg/mL). Besides, the Vd in series [9] amounted to 0.8 L/kg; in series [16], 1.4 L/kg. The Papp (in general, a coefficient for how fast a substance crosses the barrier) in series [10] was found to be 310 nm/s. Besides, the results for the CL in series [11] and in series [17] were 7.8 L/h/kg and 0.84 L/h/kg, respectively. In series [12], the AUC (as a rule, concentration integrated over time) worked out at 490 µM·h.
